The text below walks through data of US11649440B2, “Thermostabilized Amadoriases and uses thereof” (FONDAZIONE ISTITUTO ITALIANO DI TECNOLOGIA, priority 2017, dated 2023).

As a reminder, the kcat is the maximal rate divided by the concentration of active sites. In general, kcat/Km refers to the turnover number divided by the Michaelis constant.

Experiment [1] addresses T1, Aspergillus fumigatus Amadoriase I variant SS03 (Ser67Cys + Pro121Cys), SEQ ID NO: 4 (Aspergillus fumigatus, UniProt O42629, P121C/S67C).
T1 construct: E. coli codon-optimised gene in bacterial (Novagen, pET-type) vector
Kind of experiment: Steady-state kinetics of Amadoriase variant SS03 towards fructosyl-lysine (glucosone formation at 322 nm). It is filed as biochemical. The note with it: apparent, fructosyl-lysine 0.05 mM to 2 mM, 10 mM Tris HCl pH 7.4, 20 mM o-Phenylenediamine, three independent experiments. On the procedure:
(§1) Enzymatic activity was followed by a continuous assay that detects glucosone formation over time from fructosyl-lysine at 322 nm. The 200 μl reaction mixture contained 10 mM Tris HCl pH 7.4, 20 mM o-Phenylenediamine, 2 mM fructosyl-lysine. After 1 minute of pre-incubation, the reaction was started adding 4.5 μg of enzyme, and the increase in absorbance at 322 nm (glucosone ε322=149.25 M^−1cm^−1) was monitored in a Spark10M (Tecan).
(§2) Apparent steady-state parameters for the enzymes over its natural substrate were determined by means of the assay described above, with fructosyl-lysine concentrations varied from 0.05 mM to 2 mM. Data points were obtained from three independent experiments. Kinetic parameters were calculated using a non-linear least-square fit of the data, and fitted with Eq. 1 (the Michaelis-Menten equation for hyperbolic substrate kinetics) using Hyperbola fit function of GraphPad Prism version 5.00 for Windows, GraphPad Software, La Jolla Calif. USA.
(§3) [formula] in which v, Vmax, S, and Km represent the steady state reaction rate, maximum reaction rate, substrate concentration, and Michaelis-Menten constant for the substrate, respectively.

For experiment [2], the target named is T2, Aspergillus fumigatus Amadoriase I variant SS17 (Asp295Cys + Lys303Cys), SEQ ID NO: 6 (Aspergillus fumigatus, UniProt O42629, D295C/K303C).
T2 construct: E. coli codon-optimised gene in bacterial (Novagen, pET-type) vector
Kind of experiment: Steady-state kinetics of Amadoriase variant SS17 towards fructosyl-lysine (glucosone formation at 322 nm). Format: biochemical. To be noted: apparent, fructosyl-lysine 0.05 mM to 2 mM, 10 mM Tris HCl pH 7.4, 20 mM o-Phenylenediamine, three independent experiments. As for the experimental part:
as §1, §2, §3

The structures appear in SMILES notation.

Turning to `N[C@@H](CCCCNCC(=O)[C@@H](O)[C@H](O)[C@H](O)CO)C(=O)O` [fructosyl-lysine], the kcat is 21.90 ± 2.73 s⁻¹ in experiment [1] and 22.91 ± 2.12 s⁻¹ in experiment [2]. The kcat/Km came out at 64170 ± 25500 M⁻¹ s⁻¹ in experiment [1] and 33340 ± 10160 M⁻¹ s⁻¹ in experiment [2].
